Measurements taken from patent US20230310392A1, “COMPOSITIONS AND METHODS FOR THE TREATMENT OF EYE CONDITIONS” (Lenz Therapeutics, Inc., priority 2021, published 2023).
Several values for one entry are separate records, joined by “and”; a condition that tells them apart may be missing. Equal entries are not always repeated. One block for each compound: values may come before it.

Legend:
pupil = assay: Duration of miosis of muscarinic agonist with brimonidine (description); assay type: in vivo, human
Description: It is further observed that concentration of brimonidine above 0.15% w/v causes significant trigger of the alpha 1 receptor leading to ischemia and rebound redness, which neutralizes the benefit of the prolonged duration at concentrations from about 0.07% to about 0.15% w/v brimonidine.
Another surprising discovery of the present invention, is that when the pH of a composition comprising a muscarinic agonist and brimonidine is below about 6.0 the duration of miosis is prolonged up to 14 hours.
In a still further embodiment lower pH is virtually found to cause the formulation to remain on the ocular surface longer, and therefore provide more sustained microvessel constriction and reduced egress of active ingredients.

subjects = assay: Modulation of aceclidine concentration in a preferred embodiment: stinging, redness, comfort, depth of focus (Example 2); assay type: in vivo, human
Description: Preferred embodiment: • Aceclidine 1.35% - 1.55% w/v; • Polyoxyl 40 stearate 5.5% w/v; • NaCl 0.037% w/v; • a viscosity agent, preferably CMC 0.80% w/v or an amount of Carbopol® 934 or 940 sufficient to achieve a viscosity of from about 5 to about 35 cps upon topical instillation, such as Carbopol® 940 at a concentration from about 0.09% to about 1.0% w/v; • BAK 0.015% w/v; and • a phosphate, citrate, citrophosphate, or acetate buffer from about 3 to about 10 mM, wherein the pH is from about 4.75 to about 6.0.
For 1.35% w/v aceclidine - • Stinging on topical instillation 0.25 / 4.0 (lasting about 2-5 seconds); • Induced redness at 10 minutes: 1.0 to 1.5/4.0; • Induced redness at 30 minutes: 0.0 to 0.25 / 4.0; • Comfort: very high. • Wetting: very high, the eye maintaining sensation of improved wetting for most of a 24-hour period after a single topical instillation. • Depth of Focus distance: excellent. • Depth of Focus near: excellent.
In testing the above formulations on several subjects, it was discovered that there is a slight range in clinical effect depending on the concentration of aceclidine, where 1.35% - 1.55% w/v aceclidine is preferred, but for which 1.35% w/v and 1.45% w/v confer the desired benefits on most subjects.

presbyopic subjects = assay: Effect of aceclidine compositions on near and distance vision of presbyopic subjects aged 47 to 67 (Example 1); assay type: in vivo, human; details: for Effect: duration of effect; for Post Gtt 15″ L Post Dist: left eye distance vision; for Post Gtt 15″ L Post Near: left eye near vision; for Post Gtt 15″ R Post Dist: right eye distance vision; for Post Gtt 15″ R Post Near: right eye near vision
Description: As aceclidine is an […], the clinical effectiveness may vary with different ratios. For the present studies a nearly exact 50:50 ratio of stereoisomers was measured as best determined by polarimetry.
After administration of the composition all subjects experienced an improvement in their near vision that lasted from 7 to 12 hours.

[1] = Stability of aceclidine in solution at 25° C. and 4° C. by HPLC (Example 6); assay type: physicochemical
Description: 20 samples of the above composition were divided evenly and stored at 25° C. and 4° C. Prior to storage, initial concentrations of aceclidine were measured using […] (“HPLC”). The amount of aceclidine in each solution was calculated by the area under the principal peak compared to a reference solution of aceclidine. Samples were then subject to storage for 3 months. Aceclidine measurements were taken at 1, 2 and 3 months.

[2] = system: emmetrope over the age of 45; assay: Miotic agent with or without tropicamide and carrier: near and distance vision of an emmetrope over the age of 45 (FIG. 2); assay type: in vivo, human
Source text: Subject is an emmetrope over the age of 45 with a baseline near vision of 20.100 and baseline distance vision of 20.20. […] […] A proper drug carrier can also have a beneficial effect.

presbyopic subject = assay: 1.75% aceclidine in saline, LogMAR visual acuity of a presbyopic subject (Example 13); assay type: in vivo, human
Description: A 1.75% aceclidine in saline solution was formulated. One drop was instilled into each eye of a presbyopic subject. The visual acuity of the subject was tested both before and after instillation using a LogMAR chart.

presbyopic patient = assay: Compositions containing little or no cycloplegic agent: reading vs baseline at 40 cm, duration, comfort, efficacy index (Example 7); assay type: in vivo, human; details: 1.75% aceclidine, 2.5% mannitol, 0.01% tropicamide, 5% polysorbate 80, no viscosity agent
Source text: Aceclidine alone causes incidence migraine-like severe ciliary spasm (brow ache) and myopic blur. These effects are inversely correlated to age with subjects age 40 reporting the highest incidence and subject age 60+ reporting the lowest incidence. The addition of a cycloplegic agent reduces ciliary spasms and attendant brow ache, migranious headache, squeezing pressure around eyes or other symptoms of ciliary spasms. […] The addition of 2.5% w/v mannitol however does reduce the myopic effect of aceclidine. Increasing the aceclidine concentration overcomes this reduction in myopic effect seen with the addition of mannitol. […] Even more surprising, the concentration of the cycloplegic agent can be reduced or even eliminated in the presence of mannitol without an increase in ciliary spasm. […]
Further and unexpectedly, the addition of a nonionic surfactant increases both the quantitative measure of near vision improvement and the duration. […]
In brief, the score is calculated by multiplying the lines of improvement in near visual acuity by the number of hours the improvement lasts. […]

patients = details: cited from earlier work
subject = details: in vivo
Source text: The subject independently instilled 2 drops of the above compositions in each eye and the excess wiped from lids and lashes.
Stinging and Redness are based on a scale of 0 to 4 with 0 being none and 4 being the most severe.

[3] = aceclidine 1.1% composition with 0.125% w/v tropicamide
[4] = aceclidine 1.5% composition, object at 15 inches

Compound: CC(=O)OC1CN2CCC1CC2 (racemic) [aceclidine]
Duration of miosis / efficacy for near depth of field improvement (pupil; aceclidine in a preferred vehicle, pupil sizes of 1.5 to 2.0 mm): 6 to 7 h
Duration of miosis (pupil; with the addition of brimonidine at 0.07% to 0.08%): 10 to 12 h
Comfort (subjects; 1.35% w/v aceclidine): very high
Depth of Focus distance (subjects; 1.35% w/v aceclidine): excellent
Depth of Focus near (subjects; 1.35% w/v aceclidine): excellent
Duration of stinging (subjects; 1.35% w/v aceclidine preferred embodiment): 2 to 5 s
Stinging on topical instillation (subjects; 1.35% w/v aceclidine preferred embodiment, score out of 4.0): 0.25
Effect (presbyopic subjects; [3]): 12.00 h and 7.00 h
Post Gtt 15″ L Post Dist (presbyopic subjects; [3]): 20.15 and 20.20
Post Gtt 15″ L Post Near (presbyopic subjects; [3]): 20.15 and 20.25
Post Gtt 15″ R Post Dist (presbyopic subjects; [3]): 20.15 and 20.20
Post Gtt 15″ R Post Near (presbyopic subjects; [3]): 20.20 and 20.25
Effect (presbyopic subjects; aceclidine 1.5% composition): 9.00 h and 8.00 h
Post Gtt 15″ L Post Dist (presbyopic subjects; aceclidine 1.5% composition): 20.20 and 20.25 and 20.30
Post Gtt 15″ L Post Near (presbyopic subjects; [4]): 20.15 and 20.20 and 20.30
Post Gtt 15″ R Post Near (presbyopic subjects; [4]): 20.15 and 20.25 and 20.20
Post Gtt 15″ R Post Dist (presbyopic subjects; aceclidine 1.5% with 5.5% HPβCD, 0.75% CMC, 0.25% NaCl, 0.01% BAK): 20.20 and 20.25
Aceclidine remaining ([1]; 4° C., 1 month): 93%
Aceclidine remaining ([1]; 4° C., 2 months): 92%
Aceclidine remaining ([1]; 4° C., 3 months): 88%
Aceclidine remaining ([1]; 4° C., Initial): 100%
Aceclidine remaining ([1]; 25° C., 1 month): 92%
Aceclidine remaining ([1]; 25° C., 2 months): 75%
Aceclidine remaining ([1]; 25° C., 3 months): 50%
Aceclidine remaining ([1]; 25° C., Initial): 100%
Distance vision ([2]; 1.55% w/v aceclidine in saline): without any effect on the baseline distance vision
Near vision ([2]; 1.55% w/v aceclidine in saline): 20.40
Time period of near vision improvement ([2]; 1.55% w/v aceclidine in saline): 6 h
Near vision ([2]; aceclidine in carrier: 5.5% HPβCD, 0.75% CMC, 0.25% NaCl, 0.01% BAK): < 20.20
Near vision ([2]; aceclidine in the carrier with 0.042% w/v tropicamide): 20.15
LogMAR score at 1-meter distance after instillation (presbyopic subject; 1.75% aceclidine in saline, one drop each eye): -0.12 LogMAR
LogMAR score at 45 centimeters distance after instillation (presbyopic subject; 1.75% aceclidine in saline, one drop each eye, 0.50 prior to instillation): 0.22 LogMAR
Time at which noticeable degradation in reading distance acuity began (presbyopic subject; post instillation): 4 h
Time improved reading distance acuity was maintained (presbyopic subject; post instillation): 3.5 h
Near vision improvement (presbyopic patient): up to 3 lines of vision acuity

Compound: Brc1c(NC2=NCCN2)ccc2nccnc12 [brimonidine]
Treated subjects with tachyphylaxis of pupil modulation (patients; brimonidine 0.20% w/v topically for night vision, within four weeks of use): ~100%
Patients with rebound redness (patients; brimonidine 0.20% w/v twice daily): 25%

Redness 1 hr (subject): 1
Stinging (subject): 0.5
Compound: poloxamer 407

Redness 1 hr (subject): 0.5
Stinging (subject): 0.25
Compound: Polysorbate 80
